Converted amounts (≈) assume the structure as drawn. Where two headings read alike, the source gives them in different places.
Assays:
[1] = test system: Staphylococcus aureus UC 1 128 Pen-Resistant; assay: MIC, dilution in liquid medium; assay type: cell-based; details: for MIC: Staphylococcus aureus
Procedure: (§1) The method used was a dilution of a liquid medium where a series of tubes received the same quantity of a sterile nutritive media and increasing doses of the test compounds were placed therein. Then each tube was seeded with a bacterial strain and was incubated for 24 to 48 hours at 37° C. in an oven. The increasing inhibition was determined by transillumination to determine the minimum inhibiting concentration (MIC in […]) and the results are reported in the following Tables.

[2] = test system: Klebsiella pneumoniae Exp. 52 145; assay: MIC, dilution in liquid medium; assay type: cell-based; details: Klebsiella pneumoniae, read-out: M.I.C.
Procedure: as §1

[3] = test system: Staphylococcus aureus ATCC 5 638 Pen-Sensible = UC 1061; assay: MIC, dilution in liquid medium; assay type: cell-based; details: 24 h
Procedure: as §1

[4] = test system: Streptococcus faecalis 99 F 74; assay: MIC, dilution in liquid medium; assay type: cell-based; details: Enterococcus faecalis, 99F74, 48 h, 48 H
Procedure: as §1

[5] = test system: Streptococcus pyogenes A 561; assay: MIC, dilution in liquid medium; assay type: cell-based; details: Streptococcus pyogenes, read-out: M.I.C.
Procedure: as §1

[6] = test system: Escherichia Coli Exp. TO26 B6; assay: MIC, dilution in liquid medium; assay type: cell-based
Procedure: as §1

[7] = test system: Escherichia Coli Resistant Gentamicine, Tobramycine R 55 123 D; assay: MIC, dilution in liquid medium; assay type: cell-based; details: Escherichia coli
Procedure: as §1

[8] = test system: Klebsiella pneumoniae 2 536 Resistant Gentamicine; assay: MIC, dilution in liquid medium; assay type: cell-based; details: Klebsiella pneumoniae
Procedure: as §1

[9] = test system: Pseudomonas 3 935 Exp. SG; assay: MIC, dilution in liquid medium; assay type: cell-based; details: for MIC: Pseudomonas, 3935EXP.SG
Procedure: as §1

[10] = test system: Proteus mirabilis (indol-) A 235; assay: MIC, dilution in liquid medium; assay type: cell-based; details: Proteus mirabilis, read-out: M.I.C.
Procedure: as §1

Providencia Du 48 = assay: MIC, dilution in liquid medium; assay type: cell-based; details: Providencia
Procedure: as §1

[11] = test system: Staphylococcus aureus exp. n° 54 146; assay: MIC, dilution in liquid medium; assay type: cell-based; details: Staphylococcus aureus, 24 h
Procedure: as §1

[12] = test system: Serratia Resistant Gentamicine 2 532; assay: MIC, dilution in liquid medium; assay type: cell-based; details: 24 h
Procedure: as §1

[13] = test system: Escherichia Coli Resistant Tetracycline ATCC 11 303 = UC 1261; assay: MIC, dilution in liquid medium; assay type: cell-based; details: Escherichia coli, 24 h
Procedure: as §1

[14] = test system: Escherichia Coli Sensible Tetracycline ATCC 9 637 = 1020; assay: MIC, dilution in liquid medium; assay type: cell-based; details: for MIC: Escherichia coli
Procedure: as §1

[15] = test system: Streptococcus faecalis 5 432; assay: MIC, dilution in liquid medium; assay type: cell-based; details: Enterococcus faecalis, 5432, 48 h
Procedure: as §1

[16] = test system: Bacillus subtilis ATCC 6 633; assay: MIC, dilution in liquid medium; assay type: cell-based; details: for MIC: Bacillus subtilis, read-out: M.I.C.
Procedure: as §1

[17] = test system: Salmonella typhimurium 420; assay: MIC, dilution in liquid medium; assay type: cell-based; details: for MIC: Salmonella enterica, TYPHIMURIUM
Procedure: as §1

[18] = test system: Proteus vulgaris (indol+) A 232; assay: MIC, dilution in liquid medium; assay type: cell-based; details: for MIC: Proteus vulgaris
Procedure: as §1

Proteus Mirabilis A 235 = assay: Experimental infection of Proteus Mirabilis in mice; assay type: in vivo
Procedure: Groups of 10 mice with an average weight of 22 g received intraperitoneally 0.5 ml of a 24 hour old culture in oxoid bouillon of Proteus Mirabilis A 235 diluted 1/4 with distilled water. The mice then received subcutaneously the compound of Examples 11 or 15 one hour and 5 and 24 hours after the infection and the results are reported in the following Table.

Question: Which results are given for `CCO/N=C(\C(=O)N[C@@H]1C(=O)N2C(C(=O)O)=C(COC(C)=O)CS[C@H]12)c1csc(N)n1` [Example 11, 3-acetoxymethyl-7-[2-(2-amino-4-thiazolyl)-2-ethoxyiminoacetamido]-ceph-3-eme-4-carboxylic acid]?
Answer: M.I.C. ([1]; 24 H): 3 µg/mL; M.I.C. ([1]; 48 H): 5 µg/mL; MIC ([1]; UC1, 24 h, 24 H): 2 µg/mL (≈ 4.26 µM); MIC ([1]; UC1, 48 h, 48 H): 3 µg/mL (≈ 6.39 µM); MIC ([2]; EXP.52145, 24 h, 24 H): 0.2 µg/mL (≈ 0.426 µM); MIC ([2]; EXP.52145, 48 h, 48 H): 0.2 µg/mL (≈ 0.426 µM); MIC [3]: 2 µg/mL (≈ 4.26 µM); MIC [4]: 20 µg/mL (≈ 42.6 µM); MIC ([5]; A561, 24 h, 24 H): 0.02 µg/mL (≈ 0.0426 µM); MIC ([5]; A561, 48 h, 48 H): 0.02 µg/mL (≈ 0.0426 µM); M.I.C. ([6]; 24 H): 0.4 µg/mL; M.I.C. ([6]; 48 H): 0.4 µg/mL; MIC ([7]; 24 h): 1 µg/mL (≈ 2.13 µM); MIC ([7]; 24 h, read-out: M.I.C.): 0.6 µg/mL (≈ 1.28 µM); MIC ([7]; 48 h): 1 µg/mL (≈ 2.13 µM); MIC ([7]; 48 h, read-out: M.I.C.): 0.6 µg/mL (≈ 1.28 µM); MIC ([8]; 24 h): 2 µg/mL (≈ 4.26 µM); MIC ([8]; 24 h, read-out: M.I.C.): 10 µg/mL (≈ 21.3 µM); MIC ([8]; 48 h): 2 µg/mL (≈ 4.26 µM); MIC ([8]; 48 h, read-out: M.I.C.): 10 µg/mL (≈ 21.3 µM); M.I.C. ([9]; 24 H): 40 µg/mL; MIC ([9]; 24 h): 20 µg/mL (≈ 42.6 µM); MIC ([9]; 48 h): 40 µg/mL (≈ 85.2 µM); MIC ([10]; 24 h): 0.5 µg/mL (≈ 1.06 µM); MIC ([10]; 48 h): 0.5 µg/mL (≈ 1.06 µM); MIC (Providencia Du 48; DU48, 24 h, 24 H): 5 µg/mL (≈ 10.6 µM); MIC (Providencia Du 48; DU48, 48 h, 48 H): 5 µg/mL (≈ 10.6 µM); MIC [11]: 2 µg/mL (≈ 4.26 µM); MIC [12]: 2 µg/mL (≈ 4.26 µM); MIC [13]: ≤ 0.2 µg/mL; MIC ([13]; read-out: M.I.C.): 0.5 µg/mL (≈ 1.06 µM); M.I.C. ([14]; 24 H): 2 µg/mL; M.I.C. ([14]; 48 H): 2 µg/mL; MIC ([14]; ATCC9, 24 h, 24 H): 1 µg/mL (≈ 2.13 µM); MIC ([14]; ATCC9, 48 h, 48 H): 1 µg/mL (≈ 2.13 µM); MIC ([15]; 48 H): 40 µg/mL (≈ 85.2 µM); MIC ([15]; read-out: M.I.C.): 10 µg/mL (≈ 21.3 µM); M.I.C. ([16]; 24 H): 0,5 μg/ml; MIC ([16]; ATCC6, 24 h, 24 H): 0.4 µg/mL (≈ 0.852 µM); MIC ([16]; ATCC6, 48 h, 48 H): 0.4 µg/mL (≈ 0.852 µM); M.I.C. ([17]; 24 H): 2 µg/mL; M.I.C. ([17]; 48 H): 2 µg/mL; MIC ([17]; 24 h): 1 µg/mL (≈ 2.13 µM); MIC ([17]; 48 h): 1 µg/mL (≈ 2.13 µM); M.I.C. ([18]; 48 H): 1 µg/mL; MIC ([18]; 24 h, read-out: M.I.C.): 0.5 µg/mL (≈ 1.06 µM); MIC ([18]; 48 h): 2 µg/mL (≈ 4.26 µM); MORTALITY AFTER 21H30 (Proteus Mirabilis A 235; 0.025 mg subcutaneously): 3; MORTALITY AFTER 22H15 (Proteus Mirabilis A 235; 0.025 mg subcutaneously): 1; MORTALITY AFTER 24H20 (Proteus Mirabilis A 235; 0.025 mg subcutaneously): 1; MORTALITY AFTER 28H (Proteus Mirabilis A 235; 0.025 mg subcutaneously): 2; MORTALITY AFTER 46H (Proteus Mirabilis A 235; 0.025 mg subcutaneously): 2; MORTALITY AFTER 53H (Proteus Mirabilis A 235; 0.025 mg subcutaneously): 1; Mice Alive on the 8th day (Proteus Mirabilis A 235; 0.025 mg subcutaneously): 0/10; MORTALITY AFTER 22H15 (Proteus Mirabilis A 235; 0.05 mg subcutaneously): 1; MORTALITY AFTER 24H20 (Proteus Mirabilis A 235; 0.05 mg subcutaneously): 1; MORTALITY AFTER 31H45 (Proteus Mirabilis A 235; 0.05 mg subcutaneously): 1; MORTALITY AFTER 70H (Proteus Mirabilis A 235; 0.05 mg subcutaneously): 2; Mice Alive on the 8th day (Proteus Mirabilis A 235; 0.05 mg subcutaneously): 5/10; MORTALITY AFTER 28H (Proteus Mirabilis A 235; 0.1 mg subcutaneously): 1; MORTALITY AFTER 46H (Proteus Mirabilis A 235; 0.1 mg subcutaneously): 2; Mice Alive on the 8th day (Proteus Mirabilis A 235; 0.1 mg subcutaneously): 7/10; Mice Alive on the 8th day (Proteus Mirabilis A 235; 0.25 mg subcutaneously): 10/10; Mice Alive on the 8th day (Proteus Mirabilis A 235; 0.5 mg subcutaneously): 10/10; Mice Alive on the 8th day (Proteus Mirabilis A 235; 1 mg subcutaneously): 10/10
